# Laboratory results taken from US10028961B2, “Therapeutically active compounds and their methods of use” (AGIOS PHARMACEUTICALS, INC., priority 2013, dated 2018).
# pIC50: −log10 of the molar value.
# Experiments:
# HT1080 cells = test: Cellular assay for IDH1m R132C inhibitors, 2-HG by LC-MS in HT1080 cells; assay type: cell-based; settings: Homo sapiens, HT-1080
# In short: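 HT1080 cells at 5000 cells/well were treated with compound (0.2% DMSO final). After 48 h, 2-HG in the medium was measured by LC-MS. Viability was read by CellTiter-Glo luminescence at 72 h.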
# IDH2 R140Q [1] = biological target: T1, IDH2 R140Q (Homo sapiens (Human), UniProt P48735, R140Q); test: In vitro assay for IDH2m R140Q inhibitors, cofactor depletion assay; assay type: biochemical; settings: IDH2 R140Q enzyme
# In short: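 Remaining cofactor measured fluorimetrically: diaphorase/resazurin Stop Mix […], halting the reaction. Before that, mutant enzyme and compound sat 1 h at RT, then substrate mix (4 μM NADPH, 1.6 mM α-KG) was added for 16 h at RT.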
# [2] = biological target: IDH1-R132H homodimer enzyme (Homo sapiens (Human), UniProt O75874, R132H); test: In vitro assay IDH1-R132H homodimer, NADPH depletion assay with NADPH/NADP preincubation; assay type: biochemical; settings: 5 μM NADPH and 37.5 μM NADP
# In short: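 Conversion of alpha-ketoglutarate to 2-hydroxyglutarate tracked by NADPH depletion. Reaction started with 5 mM alpha-ketoglutarate plus NADPH substrate mix (50 μl total), 60 min at room temperature. Leftover NADPH quantified via diaphorase/resazurin fluorescence.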
# IDH2 R140Q [3] = biological target: T1, IDH2 R140Q; test: In vitro assay for IDH2m R140Q inhibitors, cofactor depletion assay, 16 hr preincubation with NADPH/NADP; assay type: biochemical; settings: read-out: IDH2 R140Q 16 hr NADPH/NADP IC50; 16 hrs preincubation with enzyme, 5 uM NADPH and 750 uM NADP
# Excerpt: The following describes the experimental procedures used to obtain data on column 6 of Table 5.
# The reaction is terminated by the addition of a second enzyme, diaphorase, and a corresponding substrate, resazurin. Diaphorase reduces resazurin to the highly fluorescent resorufin with the concomitant oxidation of NADPH to NADP, both halting the IDH2 reaction by depleting the available cofactor pool and facilitating quantitation of the amount of cofactor remaining after a specific time period through quantitative production of an easily detected fluorophore.
# The test compound is then incubated for 16 hrs at room temperature with the enzyme and cofactors before starting the IDH2 reaction with the addition of 10 μl of substrate mix containing 8 mM α-KG (final concentration 1.6 mM) in the buffer described above. After a further 1 hour of incubation at room temperature, the reaction is halted and the remaining NADPH measured through conversion of resazurin to resorufin by the addition of 25 μl Stop Mix (36 μg/ml diaphorase enzyme and 60 μM resazurin; in buffer).
# T1 sequence (P48735 40-452 R140Q): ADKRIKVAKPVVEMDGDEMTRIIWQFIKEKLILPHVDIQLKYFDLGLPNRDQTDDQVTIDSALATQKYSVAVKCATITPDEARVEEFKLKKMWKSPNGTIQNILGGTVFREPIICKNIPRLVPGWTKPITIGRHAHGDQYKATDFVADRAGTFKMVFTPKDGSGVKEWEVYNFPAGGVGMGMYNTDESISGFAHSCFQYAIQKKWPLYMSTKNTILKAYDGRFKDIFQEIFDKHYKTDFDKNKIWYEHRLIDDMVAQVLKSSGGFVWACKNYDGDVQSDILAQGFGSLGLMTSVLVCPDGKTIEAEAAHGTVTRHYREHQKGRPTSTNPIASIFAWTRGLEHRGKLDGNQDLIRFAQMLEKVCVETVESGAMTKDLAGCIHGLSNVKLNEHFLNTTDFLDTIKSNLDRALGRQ
# Chain of IDH1-R132H homodimer enzyme (O75874 whole entry R132H): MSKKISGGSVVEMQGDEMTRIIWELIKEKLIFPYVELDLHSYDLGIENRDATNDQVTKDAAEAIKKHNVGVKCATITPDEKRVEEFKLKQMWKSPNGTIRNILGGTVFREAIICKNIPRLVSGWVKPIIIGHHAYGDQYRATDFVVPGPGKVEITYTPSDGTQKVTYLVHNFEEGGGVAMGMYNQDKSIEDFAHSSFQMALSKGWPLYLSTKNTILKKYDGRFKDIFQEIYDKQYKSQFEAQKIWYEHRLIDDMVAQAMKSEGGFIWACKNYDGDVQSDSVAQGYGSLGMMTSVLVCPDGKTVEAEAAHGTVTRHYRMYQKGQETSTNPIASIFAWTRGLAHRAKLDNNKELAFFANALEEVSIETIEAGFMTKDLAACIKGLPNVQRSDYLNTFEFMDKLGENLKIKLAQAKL
Structure (SMILES),pIC50 (HT1080 cells),pIC50 (IDH2 R140Q [1]),pIC50 [2],pIC50 (IDH2 R140Q [3])
CCC(Nc1nc(NC(CC)C2CC2)nc(-c2cccc(Cl)n2)n1)C1CC1 (stereo not shown) [Compound 110],7.00 to 7.30,> 7.30,7.00 to 7.30,> 7.30
FC1(F)CCC(Nc2nc(NC3CCC(F)(F)C3)nc(-c3cccc(Cl)n3)n2)C1 (stereo not shown) [Compound 113],> 7.30,> 7.30,> 7.30,> 7.30
CC(C)(C)Nc1nc(Nc2cccc(C#N)c2)nc(-c2cccc(C(F)(F)F)n2)n1 [Compound 117],< 6.00,> 7.30,–,> 7.30
N#CC1(c2cc(Nc3nc(NC4CCC(F)(F)C4)nc(-c4cccc(Cl)n4)n3)ccn2)CC1 (stereo not shown) [Compound 127],7.00 to 7.30,> 7.30,> 7.30,> 7.30
C[C@@H](Nc1nc(Nc2ccnc(C3(C#N)CC3)c2)nc(-c2cccc(Cl)n2)n1)C1CC1 [Compound 167],–,> 7.30,> 7.30,> 7.30
FC1(F)CCC(Nc2nc(Nc3ccnc(C(F)(F)F)c3)nc(-c3cccc(C(F)(F)F)n3)n2)C1 (stereo not shown) [Compound 178],–,> 7.30,7.00 to 7.30,> 7.30
C[C@@H](Nc1nc(NC(C2CC2)C2CC2)nc(-c2cccc(C(F)(F)F)n2)n1)C1CC1 [Compound 193],–,> 7.30,7.00 to 7.30,> 7.30
CC(Nc1nc(N[C@H](C)C2CC2)nc(-c2cccc(C(F)(F)F)n2)n1)C(F)(F)F (stereo partly shown) [Compound 203],> 7.30,> 7.30,> 7.30,> 7.30
CC(C)(O)CNc1nc(Nc2cc(F)cc(C#N)c2)nc(-c2cccc(C(F)(F)F)n2)n1 [Compound 244],< 6.00,> 7.30,–,7.00 to 7.30
CC(C)(C)Nc1nc(Nc2cc(F)cc(C#N)c2)nc(-c2nccc(C(F)(F)F)n2)n1 [Compound 245],–,> 7.30,–,> 7.30
CC(CC#N)Nc1nc(Nc2ccnc(C(C)(F)F)c2)nc(-c2cccc(C(F)(F)F)n2)n1 (stereo not shown) [Compound 250],–,6.00 to 7.00,6.00 to 7.00,7.00 to 7.30
FC1(F)CCC(Nc2nc(NC3CCOCC3)nc(-c3cccc(C(F)(F)F)n3)n2)CC1 [Compound 255],6.00 to 7.00,–,6.00 to 7.00,6.00 to 7.00
O=C(c1ccccc1)N1CCC(Nc2nc(NC3CCC(F)(F)C3)nc(-c3cccc(C(F)(F)F)n3)n2)C1 (stereo not shown) [Compound 263],6.00 to 7.00,–,6.00 to 7.00,6.00 to 7.00
CS(=O)(=O)N1CCC(Nc2nc(NC3CCC(F)(F)CC3)nc(-c3cccc(C(F)(F)F)n3)n2)CC1 [Compound 266],< 6.00,–,< 6.00,6.00 to 7.00
C[C@@H](Nc1nc(N[C@H](C)C2CC2)nc(-c2nccc(C(F)(F)F)n2)n1)C1CC1 [Compound 268],6.00 to 7.00,7.00 to 7.30,< 6.00,7.00 to 7.30
CC(=O)N1CCC(Nc2nc(NC3CCC(F)(F)CC3)nc(-c3cccc(C(F)(F)F)n3)n2)CC1 [Compound 273],< 6.00,–,< 6.00,< 6.00
FC1(F)CCC(Nc2nc(NC3CCN(Cc4ccccc4)C3)nc(-c3cccc(C(F)(F)F)n3)n2)C1 (stereo not shown) [Compound 280],< 6.00,–,< 6.00,6.00 to 7.00
